From patent US10660900B2 (priority 2014, dated 2020)
Several values for one entry are separate records, joined by “and”; a condition that tells them apart may be missing. Identical values can stand only once. Like-named read-outs stand apart in the source and are kept apart here.

Experiments:
human OPRK = assay: biochemical; format: binding
human OPRM [1] = molecular target: T1, human OPRM (Homo sapiens, UniProt P35372); parameters: expressed in transfected cells; host or cells: CHO-K1 (cell line provided by Dr. Toll, Torrey Pines Institute); membranes prepared in house; settings: cited from earlier work
T1 sequence (P35372 whole entry): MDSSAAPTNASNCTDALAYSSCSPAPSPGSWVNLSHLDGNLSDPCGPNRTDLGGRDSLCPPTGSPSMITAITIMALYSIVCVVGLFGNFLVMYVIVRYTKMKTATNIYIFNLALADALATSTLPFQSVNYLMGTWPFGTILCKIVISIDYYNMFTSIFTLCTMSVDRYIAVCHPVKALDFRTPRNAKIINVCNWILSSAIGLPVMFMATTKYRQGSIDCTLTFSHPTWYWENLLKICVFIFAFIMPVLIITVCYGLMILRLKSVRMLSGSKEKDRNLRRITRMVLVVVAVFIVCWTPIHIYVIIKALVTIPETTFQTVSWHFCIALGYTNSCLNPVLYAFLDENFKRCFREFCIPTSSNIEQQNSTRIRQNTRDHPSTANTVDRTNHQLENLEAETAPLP

human OPRM [2] = molecular target: T1, human OPRM; parameters: expressed in transfected cells; host or cells: CHO-K1 (cell line provided by Dr. Toll, Torrey Pines Institute); membranes prepared in house; settings: cited from earlier work; remark: listed apart in the source
calf OPRM = calf OPRM (Bos taurus, UniProt P79350); settings: cited from earlier work
calf OPRM, sequence (P79350 whole entry): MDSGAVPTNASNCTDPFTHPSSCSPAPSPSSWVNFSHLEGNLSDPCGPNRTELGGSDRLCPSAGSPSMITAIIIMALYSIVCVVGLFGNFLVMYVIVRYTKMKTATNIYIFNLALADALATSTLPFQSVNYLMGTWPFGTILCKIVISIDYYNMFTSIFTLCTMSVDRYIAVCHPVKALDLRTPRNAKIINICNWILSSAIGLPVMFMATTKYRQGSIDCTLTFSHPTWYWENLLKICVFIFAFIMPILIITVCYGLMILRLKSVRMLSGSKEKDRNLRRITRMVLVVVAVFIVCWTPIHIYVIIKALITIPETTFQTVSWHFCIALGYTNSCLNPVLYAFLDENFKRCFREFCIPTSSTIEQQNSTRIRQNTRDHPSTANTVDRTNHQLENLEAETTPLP

calf OPRK = calf OPRK (Bos taurus, UniProt Q2KIP6); settings: calf receptor; literature; cited from earlier work
calf OPRK, sequence (Q2KIP6 whole entry): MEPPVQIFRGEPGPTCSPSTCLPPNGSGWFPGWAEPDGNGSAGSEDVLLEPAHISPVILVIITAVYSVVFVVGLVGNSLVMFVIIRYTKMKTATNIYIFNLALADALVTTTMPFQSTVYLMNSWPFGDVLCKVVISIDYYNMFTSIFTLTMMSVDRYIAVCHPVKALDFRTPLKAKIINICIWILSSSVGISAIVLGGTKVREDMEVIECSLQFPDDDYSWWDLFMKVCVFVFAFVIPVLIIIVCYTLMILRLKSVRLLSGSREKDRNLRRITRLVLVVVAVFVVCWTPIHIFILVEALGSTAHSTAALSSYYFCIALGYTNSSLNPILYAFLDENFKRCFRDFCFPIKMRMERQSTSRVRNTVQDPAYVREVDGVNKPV

OPRK [3] = molecular target: T2, OPRK (Homo sapiens, UniProt P41145); assay: biochemical; format: binding; parameters: expressed in transfected cells; host or cells: CHO-K1; settings: Ki
T2 sequence (P41145 whole entry): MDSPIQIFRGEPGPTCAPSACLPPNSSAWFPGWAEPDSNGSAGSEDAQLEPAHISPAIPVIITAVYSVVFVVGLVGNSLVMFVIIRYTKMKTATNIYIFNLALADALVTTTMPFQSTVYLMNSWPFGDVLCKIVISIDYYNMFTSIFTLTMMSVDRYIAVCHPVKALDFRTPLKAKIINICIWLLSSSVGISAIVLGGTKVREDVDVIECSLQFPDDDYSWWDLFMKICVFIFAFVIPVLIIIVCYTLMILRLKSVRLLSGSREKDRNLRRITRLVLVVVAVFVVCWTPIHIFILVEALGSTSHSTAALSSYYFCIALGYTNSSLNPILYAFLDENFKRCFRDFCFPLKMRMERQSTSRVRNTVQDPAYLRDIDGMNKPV

OPRK [4] = molecular target: T2, OPRK; assay: biochemical; parameters: expressed in transfected cells; host or cells: CHO-K1; settings: for Emax: read-out: Efficacy (Emax)
human OPRM [5] = molecular target: T1, human OPRM; assay: biochemical; format: binding; parameters: expressed in transfected cells; host or cells: CHO-K1 (cell line provided by Dr. Toll, Torrey Pines Institute); membranes prepared in house; settings: Ki
human OPRM [6] = molecular target: T1, human OPRM; assay: biochemical; parameters: expressed in transfected cells; host or cells: CHO-K1 (cell line provided by Dr. Toll, Torrey Pines Institute); membranes prepared in house; settings: for Emax: read-out: Efficacy (Emax)
[7] = molecular target: opioid receptor delta (OPRD) (Bos taurus, UniProt F1N083); settings: printed in the SEM column; literature; cited from earlier work
opioid receptor delta (OPRD), sequence (F1N083 1-372): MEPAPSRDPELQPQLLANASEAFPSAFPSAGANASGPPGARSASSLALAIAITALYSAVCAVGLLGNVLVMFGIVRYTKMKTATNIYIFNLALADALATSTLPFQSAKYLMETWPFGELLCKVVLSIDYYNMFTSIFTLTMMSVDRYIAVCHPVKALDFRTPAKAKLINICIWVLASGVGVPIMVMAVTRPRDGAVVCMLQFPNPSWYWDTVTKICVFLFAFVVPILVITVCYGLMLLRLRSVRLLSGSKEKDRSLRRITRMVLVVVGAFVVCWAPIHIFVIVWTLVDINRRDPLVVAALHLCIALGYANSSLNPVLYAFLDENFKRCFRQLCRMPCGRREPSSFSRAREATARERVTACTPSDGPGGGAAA

OPRK [8] = molecular target: T2, OPRK; assay: cell-based; parameters: host or cells: CHO-K1
[9] = Single ascending oral dose pharmacokinetics of noribogaine in healthy volunteers (plasma and urine, LCMSMS); settings: for AUC0-216 / AUC0-∞ / Cmax / Tmax / t1/2: mean (SD), n = 6
human OPRM [10] = molecular target: T1, human OPRM; format: cell-based; parameters: host or cells: CHO-K1
[11] = from literature (or literature/this work) values
[12] = 30 mg single oral noribogaine, plasma
[13] = 60 mg single oral noribogaine, plasma

## NC(N)=Nc1ccc2c3c([nH]c2c1)[C@@H]1Oc2c(O)ccc4c2[C@@]12CCN(CC1CC1)[C@H](C4)[C@]2(O)C3 [6′GNTI, 6′-guanidinonaltrindole]
Human OPRK; [11]
  ΔpKi = pKi(OPRK) − pKi(OPRM), OPRK Specificity: 1.84
Human OPRM [1]
  Ki: 0.082 µM
  pKi: 7.1
Human OPRM [2]; activation, literature
  EC50: > 1 µM
  Efficacy: 0~ %

## COCCC1CC2CN3CCc4c([nH]c5ccccc45)C(C(=O)OC)(C2)C13 (stereo not shown) [18-MC, 18-methoxycoronaridine, reference compound]
Human OPRK; [11]
  ΔpKi = pKi(OPRK) − pKi(OPRM), OPRK Specificity: −0.7
Human OPRK; from values of this work
  ΔpKi = pKi(OPRK) − pKi(OPRM), OPRK Specificity: 0.1
Human OPRK; in these assays
  affinity at human OPRK versus OPRM: equi-affine to both human OPRK and OPRM
Calf OPRM; Glick, Maisonneuve et al. 2000
  reported selectivity at OPRM: 5 ×
Calf OPRM; calf receptor, literature
  pKi: 6.0
Calf OPRK
  Ki: 5.1 µM
  pKi: 5.3
OPRK [3]; Table 9 summary column, value of this work
  Ki: 1.8 µM
OPRK [3]; [3H]-U69,593
  Ki: 1.84 ± 0.12 µM
OPRK [4]
  EC50: ~16 µM
  Efficacy (inhibition): −100%
  e-coupling (pKi-pEC50): 0.94~
  e-coupling (pKi-pKe): 0.39
  stimulation of [35S]GTPγS binding to OPRK: failed to stimulate
  Emax: < 5%
OPRK [4]; Ke
  Ki: 2.8 µM and 2.9 µM and 4.3 µM
Human OPRM [5]
  Ki: 2.26 µM and 2.36 µM
Human OPRM [6]
  stimulation of the OPRM G-protein pathway: failed to stimulate the OPRM G-protein pathway
  Emax: < 5%

## C[C@@H](NC(=O)[C@@H](N)Cc1ccc(O)cc1)C(=O)NCC(=O)N(C)[C@@H](Cc1ccccc1)C(=O)NCCO [DAMGO, [D-Ala2, NMe-Phe4, Gly-ol5]-enkephalin]
Human OPRK; [11]
  ΔpKi = pKi(OPRK) − pKi(OPRM), OPRK Specificity: <−3

## CCC1CC2CC3c4[nH]c5ccc(OC)cc5c4CCN(C2)C13 (stereo not shown) [Ibogaine, ibogaine, reference compound]
Calf OPRM; calf receptor, literature
  Ki: 11 µM
  pKi: 5.0
[7]
  Ki at OPRD: (OPRD − N.Q.)
Human OPRM [5]
  Ki: 6.92 ± 0.83 µM
Human OPRM [6]
  stimulation of the OPRM G-protein pathway: failed to stimulate the OPRM G-protein pathway
  Emax: -2.9%

## C=C1CC[C@@]2(O)[C@H]3Cc4ccc(O)c5c4[C@@]2(CCN3CC2CC2)[C@H]1O5 [Nalmefene, nalmefene, reference compound]
OPRK [4]
  Efficacy (inhibition): −65%
  e-coupling (pKi-pEC50): 0.92
  e-coupling (pKi-pKe): 0.23
  own reduced signal level to which rival agonist signal is leveled down: 30%
  Emax: 35 ± 4.7%

## Oc1ccc2c3c1O[C@H]1c4[nH]c5c(c4C[C@@]4(O)[C@@H](C2)N(CC2CC2)CC[C@]314)C[C@@]1(O)[C@H]2Cc3ccc(O)c4c3[C@@]1(CCN2CC1CC1)[C@H]5O4 [NorBNI, nor-binaltorphimine, reference compound]
Human OPRK; [11]
  ΔpKi = pKi(OPRK) − pKi(OPRM), OPRK Specificity: 2.0
OPRK [8]; inhibitory component
  e-coupling (pKi-pKe): 0.27
OPRK [8]; inhibitory component against Dynorphin A
  Efficacy (inhibition): −100%
OPRK [4]
  Efficacy (inhibition): −100%
  e-coupling (pKi-pKe): −0.1

## CC[C@H]1C[C@@H]2C[C@H]3c4[nH]c5ccc(OC6OC(C(=O)O)C(O)C(O)C6O)cc5c4CCN(C2)[C@@H]13 (stereo partly shown) [Noribogaine glucuronide, noribogaine glucuronide]
[9]; 30 mg and 60 mg dose groups
  proportion of noribogaine glucuronide Cmax and AUC relative to noribogaine: 3-4%
[9]; [12]
  AUC0-216: 25.7 (9.1) ng · hr/ml
  AUC0-∞: 25.8 (9.3) ng · hr/ml
  Cmax: 1.8 (0.6) ng/ml
  Tmax: 3.0 (0.6) hr
  t1/2: 20.6 (4.9) hr
[9]; [13]
  AUC0-216: 65.0 (21.5) ng · hr/ml
  AUC0-∞: 67.1 (21.9) ng · hr/ml
  Cmax: 4.1 (1.2) ng/ml
  Tmax: 3.8 (1.2) hr
  t1/2: 23.1 (3.0) hr
[9]; plasma, 30 mg and 60 mg noribogaine
  time by which detected in all subjects: ≤ 0.75 h
[9]; plasma, across dose groups
  Mean half-life: 21 to 23 h
  time of peak concentrations after oral noribogaine dosing: 3 to 4 h

## [Met]-Enkephalin
Human OPRK
  ΔpKi = pKi(OPRK) − pKi(OPRM), OPRK Specificity: <−3
Human OPRM [10]
  Efficacy: 100%
Human OPRM [2]
  Efficacy: ~95%
